According to patent US7339042B2, “Gene delivery to tumors” (University of Florida Research Foundation, Inc., priority 2003, dated 2008):

Columns and labels:
[1] = test system: RG2 cells; experiment: Kinetic uptake studies of fluorescent peptides; assay type: cell-based, rat
Method: A172 cells, T98G cells and RG2 cells were purchased from ATCC. Cells were cultured under standard conditions. For cell uptake studies, each cell type was plated in 6 well plates at 5×10^5 cells per well 24 hours before the experiment. Increasing concentration of fluorescent peptides from 0.5 μM to 10 μM was prepared in complete medium. Cells were incubated with each concentration for 5, 10, 20 and 30 minutes at 37° C. followed by removal and washing of cells with 4° C. PBS 3×. Cells were solubilized in 0.2 ml 1% TX-100, PBS, pH 7.4. Fluorescence was measured using a fluorescent plate reader. Concentrations were determined by standard curve and normalized to μg of cellular protein.
A172, T98G and RG2 cells were plated in 6 well plates and incubated with 1, 2.5, 5 and 10 uM fluorescein labeled peptides for 5, 15, 30 and 60 minutes. Cells were washed 3× with PBS, removed from the plates with trypsin, centrifuged for 2 minutes at 2K rpm in a desk top centrifuge, supernatants discarded and the cell pellets were solubilized in 1% TX-100, PBS, pH 7.4. Fluorescence was measured in a Perkin Elmer fluorimeter using ˜ex=480 nm and ˜em=520 nm with a 510 nm cut off filter. Amount of cell-associated protein was determined from the standard curve.
This peptide was further characterized with regard to dose response. […]

[2] = test system: two human glioblastoma cell lines and a rat glioma cell line; experiment: Fluorescein peptide uptake, fluorescence microscopy, three glioma lines; assay type: cell-based; conditions: 1 μM peptide, 10^6 cells, all three cell types
Method: Synthetic peptides labeled with an N-terminal fluorescein were synthesized to test the ability of a shuttle domain to enter brain tumor and endothelial cells. The amino acid sequences for the shuttle domain was derived from HIV Tat amino acid 47 to 56 ([…] SEQ ID NO:23)(Robert-Guroff et al., J. Virol. 64:3391-3398, 1990) to which AGGG was added to the N-terminus, and the antennapedia homeodomain from drosophila (ANT) ([…] SEQ ID NO:24) (Astriab-Fisher et al., Pharm. Res., 19:744-754, 2002). A synthetic peptide (PTD-5) reported to have similar properties as Tat and ANT was also tested (Mai J. C. et al, Cancer Res. 2001; 61: 7709-7712.). Uptake was tested in two human glioblastoma cell lines and a rat glioma cell line, the latter being used for the rat brain tumor model. A 1 μM concentration of each peptide was added to 10^6 cells in a 6 well plate. […] The Tat and ANT peptides were doubled in length by the addition of […] (SEQ ID NO: 25), amino acids 42 to 55 from a human cyclin-dependent kinase inhibitor 2A (melanoma, p16, inhibits CDK4) (CDKI), transcript variant 4, mRNA (accession no. NM_058195). This domain binds MDM2 and inhibit ubiquination of P53, a tumor suppressor protein. […] Only the combination of Tat-CDKI was toxic to the cells, 65% killing for T98G and 61% killing for RG2 cells. […] Similar results were obtained with A172 cells. […]

[3] = test system: T98G cells, RG2 cells and A172 cells; experiment: Cell viability assay of chimeric peptides in three cell types; assay type: cell-based, human and rat; conditions: fixed concentration, 30-minute incubation
Method: Synthetic peptides labeled with an N-terminal fluorescein were synthesized to test the ability of a shuttle domain to enter brain tumor and endothelial cells. The amino acid sequences for the shuttle domain was derived from HIV Tat amino acid 47 to 56 ([…] SEQ ID NO:23)(Robert-Guroff et al., J. Virol. 64:3391-3398, 1990) to which AGGG was added to the N-terminus, and the antennapedia homeodomain from drosophila (ANT) ([…] SEQ ID NO:24) (Astriab-Fisher et al., Pharm. Res., 19:744-754, 2002). A synthetic peptide (PTD-5) reported to have similar properties as Tat and ANT was also tested (Mai J. C. et al, Cancer Res. 2001; 61: 7709-7712.). Uptake was tested in two human glioblastoma cell lines and a rat glioma cell line, the latter being used for the rat brain tumor model. A 1 μM concentration of each peptide was added to 10^6 cells in a 6 well plate. […] The Tat and ANT peptides were doubled in length by the addition of […] (SEQ ID NO: 25), amino acids 42 to 55 from a human cyclin-dependent kinase inhibitor 2A (melanoma, p16, inhibits CDK4) (CDKI), transcript variant 4, mRNA (accession no. NM_058195). […]
The cytotoxicity of the chimeric peptides was characterized using a cell viability assay. […] After a 30-minute incubation, cells were removed from the plate, stained with propidium iodide and the % positive cells were determined by FACS (fluorescent activated cell scanning). […]

[4] = test system: rat cerebral arteries; experiment: Vasodilation and vasoconstriction response of rat cerebral arteries before and after peptide; assay type: cell-based; conditions: after vs before intraluminal peptide
Method: The blood vessels were put in culture described above and perfused with buffer of the same composition as cerebrospinal fluid. Vessel diameter was measured before and after administration of each reagent. 3 μM of each peptide was perfused through for 10 minutes followed by a 10 minute wash through. Vasoconstriction and vasodilation were determined for each vessel before peptide was applied. Perfusion was continued until the vessels relaxed to their original diamter (approximately 30 minutes). The vasoconstriction and vasodilation reponse was remeasured after the 10 minute wash through. The 60 mM KCl and 16 mM KCl conditions are […], respectively. Histamine and Bradykinin are endothelial cell vasodilators.
In some experiments, the arterial segments were denuded of endothelium by passing an air bubble through the lumen, thus exposing the smooth muscle cells to luminally administered peptides. Constriction to pressure and 60 mM KCl and dilation of arteries with myogenic tone to 16 mM KCl were used as benchmarks of functional arteries. Peptide containing PCSF was perfused intraluminally at an inlet pressure of 70 mmHg with the outlet open, for 20 min and then perfused with normal PCSF. This procedure ensures a 20 min of exposure of the arteries to the peptide.
Effect of peptide on endothelial and smooth muscle function was evaluated by histamine (0.3 and 1 μM) and bradykinin (0.5 μM) (endothelium-dependent vasodilators) and 16 and 60 mM KCl (results in dilation and constriction of arteries by hyperpolarizing and depolarizing smooth muscle, respectively). These drug solutions were added to the superfusate and applied to the arteries extraluminally for 10 to 15 min before and after intraluminal perfusion with peptides. Effects of these agents were expressed as percent change in myogenic tone (decrease for dilators and increase for constrictors). Experiments were concluded by exposing the arteries to calcium free PCSF to obtain the passive diameter. Cell viability was determined by adding H3334 (Hoechst viability stain, final concentration 1 μM) and propidium iodide (final concentration 1 μM) to the arteriograph after the peptide incubation. Fluorescent micrographs were taken of the vessels after incubation with peptides and following addition of the vital stains using Till Photonics imaging system (Martinsried, Germany).

[5] = Fusion peptide cell killing, propidium iodide/FACS viability, T98G cells; assay type: cell-based, human; conditions: peptides in complete media for 1 hr, Table 2, read-out: % Viable Cells
Method: (§1) Other experiments were performed using two glioma cell lines, i.e., T98G and RG2. 1×10^6 cells per well were incubated in 6-well plates with peptides in complete media for 1 hr. Cells were removed from the plate using a cell stripper and the percentage of viable cells was determined by staining with propidium iodide and analyzing by fluorescence activated cell sorting (FACS).
(§2) Cell viability studies were performed by plating the cells under the same conditions as the uptake studies. Cells were incubated with fluorescent peptides for 1 hr at 37° C. The cells were removed from the plate using cell striper. They were labeled with propidium iodide and fluorescein-AM. Percent PI positive cells were determined by FACS.

[6] = test system: T98G cells; experiment: as above; assay type: cell-based, human
Method: as §1, §2

[7] = test system: endothelial cells and smooth muscle cells of rat cerebral arteries; experiment: Uptake of fluorescent peptides by pressure-mounted rat cerebral arteries; assay type: cell-based; conditions: extraluminal addition

## C[C@H](N)C(=O)NCC(=O)NCC(=O)NCC(=O)N[C@@H](Cc1ccc(O)cc1)C(=O)NCC(=O)N[C@@H](CCCNC(=N)N)C(=O)N[C@@H](CCCCN)C(=O)N[C@@H](CCCCN)C(=O)N[C@@H](CCCNC(=N)N)C(=O)N[C@@H](CCCNC(=N)N)C(=O)N[C@@H](CCC(N)=O)C(=O)N[C@@H](CCCNC(=N)N)C(=O)N[C@@H](CCCNC(=N)N)C(=O)N[C@@H](CCCNC(=N)N)C(=O)O [Tat]
[1]
  uptake rate: more rapid uptake than TatP14ARF
[2]
  fluorescence labeling of cells (uptake): preferentially labeled the cell nuclei
[3]
  cells killed: No impact on cell viability
[4]
  endothelium-dependent dilation to histamine and bradykinin: responsive to all stimuli
  smooth muscle response to 60 and 16 mM KCl: responsive to all stimuli
[5]
  viability: 94.9%
[6]; 10 μM peptide, 1 hr
  % killing (toxicity): no toxicity
[6]; peptides in complete media for 1 hr, Table 2
  % Viable Cells: ineffective
[7]
  labeling of smooth muscle cells: able to label the smooth muscle cells
